Test results: patent US12358912B2 (ASCENTAGE PHARMA (SUZHOU) CO., LTD., priority 2020, dated 2025)

Tests used:
[1] = Stability test (2): salt crystalline forms at high temperature, high humidity and light, detection by HPLC and XRPD; type: physicochemical; conditions: for total impurities (%): HPLC
[2] = Evaluation of hygroscopicity by Dynamic Moisture Sorption Analyzer (DVS), with XRPD before and after DVS; type: physicochemical; conditions: for weight increase by hygroscopy (80% RH): DVS; for XRPD change: XRPD before and after DVS
[3] = 60° C. (open), 5 days, listed as XL
[4] = 60° C. (open), 10 days, listed as XL
[5] = 60° C. (open), 30 days, listed as XL
[6] = light (RT, white light 6980 lux, UV 282 μW/cm2), 5 days, listed as XL
[7] = light (RT, white light 6980 lux, UV 282 μW/cm2), 10 days, listed as XL
[8] = light (RT, white light 6980 lux, UV 282 μW/cm2), 5 days
[9] = light (RT, white light 6980 lux, UV 282 μW/cm2), 10 days

XPRD ([1]; RT/75% RH (open), 5 days) | XPRD ([1]; RT/75% RH (open), 10 days) | XRPD change [2] | XPRD ([1]; 60° C. (open), 5 days) | XPRD ([1]; 60° C. (open), 10 days) | XPRD ([1]; 60° C. (open), 30 days) | total impurities (%) ([1]; 60° C. (open), 5 days) | total impurities (%) ([1]; 60° C. (open), 10 days) | total impurities (%) ([1]; 60° C. (open), 30 days) | total impurities (%) ([1]; RT/75% RH (open), 5 days) | total impurities (%) ([1]; RT/75% RH (open), 10 days) | total impurities (%) ([1]; RT/75% RH (open), 30 days) | total impurities (%) [1, 8] | total impurities (%) [1, 9] | total impurities (%) ([1]; the initial sample, 0 day) | XPRD ([1]; RT/75% RH (open), 30 days) | XPRD [1, 8] | XPRD [1, 9] | XPRD ([1]; the initial sample, 0 day) | weight increase by hygroscopy (80% RH) [2] | SMILES | further results
No change | No change | no change |  |  |  |  |  |  |  |  |  |  |  |  |  |  |  |  |  | O=C(NS(=O)(=O)c1ccc(NCC2COCCO2)c([N+](=O)[O-])c1)c1ccc(N2CCN(CC3=C(c4ccc(Cl)cc4)CC4(CCC4)CC3)CC2)cc1Oc1cnc2[nH]ccc2c1 (stereo not drawn) [maleate crystalline Form XL] | XPRD [1, 3]: No change; XPRD [1, 4]: No change; XPRD [1, 5]: No change; total impurities (%) [1, 3]: 1.15%; total impurities (%) [1, 4]: 1.18%; total impurities (%) [1, 5]: 1.28%; total impurities (%) ([1]; RT/75% RH (open), 5 days, listed as XL): 0.93%; total impurities (%) ([1]; RT/75% RH (open), 10 days, listed as XL): 1.06%; total impurities (%) ([1]; RT/75% RH (open), 30 days, listed as XL): 0.90%; total impurities (%) [1, 6]: 1.08%; total impurities (%) [1, 7]: 1.18%; total impurities (%) ([1]; the initial sample, 0 day, listed as XL): 0.91%; XPRD [1, 6]: No change; XPRD [1, 7]: No change; weight increase by hygroscopy (80% RH) ([2]; listed as XL): 1.41%
No change | No change | no change | No change | No change | No change | 1.26% | 1.37% | 1.33% | 1.22% | 1.25% | 1.27% | 1.20% | 1.28% | 1.19% | No change | No change | No change | XXVII | 3.32% | O=C(NS(=O)(=O)c1ccc(NC[C@H]2COCCO2)c([N+](=O)[O-])c1)c1ccc(N2CCN(CC3=C(c4ccc(Cl)cc4)CC4(CCC4)CC3)CC2)cc1Oc1cnc2[nH]ccc2c1.O=S(=O)(O)c1ccccc1 [XXVII] | 
No change | No change | no change | No change | No change | No change | 0.64% | 0.65% | 0.66% | 0.65% | 0.65% | 0.60% | 0.64% | 0.59% | 0.65% | No change | No change | No change | XXIX | 0.948% | Cc1ccc(S(=O)(=O)O)cc1.O=C(NS(=O)(=O)c1ccc(NC[C@H]2COCCO2)c([N+](=O)[O-])c1)c1ccc(N2CCN(CC3=C(c4ccc(Cl)cc4)CC4(CCC4)CC3)CC2)cc1Oc1cnc2[nH]ccc2c1 [XXIX] | 
No change | No change | no change | No change | No change | No change | 0.89% | 0.92% | 0.83% | 0.82% | 0.86% | 0.74% | 0.82% | 1.02% | 0.80% | No change | No change | No change | XXX | 0.90% | O=C(NS(=O)(=O)c1ccc(NC[C@H]2COCCO2)c([N+](=O)[O-])c1)c1ccc(N2CCN(CC3=C(c4ccc(Cl)cc4)CC4(CCC4)CC3)CC2)cc1Oc1cnc2[nH]ccc2c1.O=S(=O)(O)O [XXX] | 
No change | No change | changed | No change | No change | No change | 0.48% | 0.48% | 0.61% | 0.50% | 0.50% | 0.50% | 0.73% | 0.72% | 0.50% | No change | No change | No change | XXIV | 1.246% | O=C(NS(=O)(=O)c1ccc(NC[C@H]2COCCO2)c([N+](=O)[O-])c1)c1ccc(N2CCN(CC3=C(c4ccc(Cl)cc4)CC4(CCC4)CC3)CC2)cc1Oc1cnc2[nH]ccc2c1.O=C(O)/C=C\C(=O)O [XXIV] | 
No change | No change | no change | No change | No change | No change | 0.90% | 0.89% | 0.86% | 0.80% | 0.82% | 0.81% | 0.88% | 1.02% | 0.76% | No change | No change | No change | XXXIX | 0.37% | O=C(NS(=O)(=O)c1ccc(NC[C@H]2COCCO2)c([N+](=O)[O-])c1)c1ccc(N2CCN(CC3=C(c4ccc(Cl)cc4)CC4(CCC4)CC3)CC2)cc1Oc1cnc2[nH]ccc2c1.O=C(O)CC(O)(CC(=O)O)C(=O)O [XXXIX] | 
 |  | changed |  |  |  | 0.90% | 0.91% | 1.11% | 0.67% | 0.71% | 0.70% | 0.84% | 1.09% | 0.67% |  | No change | No change | XXXIII | 7.82% | CS(=O)(=O)O.O=C(NS(=O)(=O)c1ccc(NC[C@H]2COCCO2)c([N+](=O)[O-])c1)c1ccc(N2CCN(CC3=C(c4ccc(Cl)cc4)CC4(CCC4)CC3)CC2)cc1Oc1cnc2[nH]ccc2c1 [XXXIII] | 
